Where “and” joins values, the source holds several entries; their conditions need not be identical. Equal values may be shown once. Read-outs that look alike come from different tables or passages of the source.
Key:
[1] = Granule tabletability, […] compactor simulator; format: physicochemical; conditions: 600 mg darunavir, 12 mm
Protocol: This provided an assessment of granule tabletability using a […] compactor simulator, producing 12 mm flat cylindrical tablets having a thickness of approximately 4.6 mm.
The processing parameters for the granules in table 8 were: 0.4 kg/h throughput, 300 rpm screw speed, 60° C. processing temperature.
The granules were blended with 1% of MgSt and formed into tablets using […] tooling.

[2] = Percent loss-on-drying (LOD); format: physicochemical
[3] = cited from earlier work
[4] = cited from earlier work; remark: listed apart in the source
[5] = tablet 96% darunavir + 1% MgSt + 3% CMC-Na, avg. pre-compression force 1.54-1.84 kN
[6] = tablet 99% darunavir + 1% MgSt, avg. pre-compression force 1.67-1.80 kN
[7] = tablet 99% darunavir + 1% MgSt, avg. pre-compression force 9.59-10.16 kN

| SMILES | Avg. Crushing Force/Hardness [1, 5] | Tablet density [1, 5] | Tensile Strength [1, 5] | Avg. Crushing Force/Hardness [1, 6] | Tablet density [1, 6] | Tensile Strength [1, 6] | Avg. Crushing Force/Hardness [1, 7] | Tablet density [1, 7] | Tensile Strength [1, 7] | percent loss-on-drying, Avg. ([2]; average of 3 samples) | percent loss-on-drying (weight loss due to moisture evaporation) ([2]; individual Samples 1-3, listed as Pure Darunavir) | solubility ([3]; pH of 2.0-5.5) | solubility ([3]; pH of 5.5-6.1) | dissociation constant, pKa [4] |
| --- | --- | --- | --- | --- | --- | --- | --- | --- | --- | --- | --- | --- | --- | --- |
| CC(C)CN(C[C@@H](O)[C@H](Cc1ccccc1)NC(=O)O[C@H]1CO[C@H]2OCC[C@H]21)S(=O)(=O)c1ccc(N)cc1 [darunavir, Darunavir] | 65.3 N | 1.16 g/mL | 0.76 MPa | 42.9 N | 1.14 g/mL | 0.49 MPa | 36.8 N | 1.15 g/mL | 0.42 MPa | 4.42% | 4.36% and 4.28% and 4.63% |  |  |  |
| NC(=O)c1nc(F)c[nH]c1=O [favipiravir, 6-fluoro-3-oxo-3,4-dihydropyrazine-2-carboxamide] |  |  |  |  |  |  |  |  |  |  |  | only slightly soluble | sparingly soluble | 5.1 |

— US20240390285A1, “HIGH-DOSE COMPRESSIBLE DOSAGE FORMS MANUFACTURED BY SIMULTANEOUS MELT-COATING AND MELT-GRANULATION OF ACTIVE PHARMACEUTICAL INGREDIENTS” (Rutgers, The State University of New Jersey, priority 2021, published 2024)
